From US12630521B2, “Arylamides and methods of use thereof” (Genzyme Corporation, priority 2019, dated 2026) come the findings set out here.

Assay [1] concerns the target T1, human Cystic Fibrosis Transmembrane Conductance Regulator (CFTR) harboring the ΔF508 mutation (Homo sapiens, UniProt P13569, DEL508-508).
T1 construct: expressed in transfected cells; host or cells: H441 carcinoma cell line (G418 selection)
In words: H441 cell Emax and EC50: HRP-tagged ΔF508-CFTR cell-surface luminescence assay. Type of assay: cell-based. The settings on record: H441 cells expressing HRP-tagged ΔF508-CFTR, 27° C. for two nights; for EC50: 15-point dose-response; for Emax: NCI-H441, % of maximum VX809 signal. An excerpt: Example 36: H441 Cell Emax and EC50
Two cell lines were used, the H441 carcinoma line and the CFHBE41o− (41o−) human bronchial epithelial line. Both cell lines expressed human Cystic Fibrosis Transmembrane Conductance Regulator (CFTR) harboring the ΔF508 mutation and with an in-frame fusion in CFTR extracellular loop 4 of Horse Radish Peroxidase (HRP) under control of the CMV promoter. In the presence of the HRP tag, ΔF508-CFTR transported to the cell surface was detectable upon addition of an HRP substrate (Luminata Forte). Both cell types were cultivated at 37° C. with CO2.
For both cell types, the medium was changed every other day unless the culture was at low % confluence. Cells were used for the assays at ˜75% confluence.
DMSO/Compound Dilutions Plate for 15-Point Dose-Response Testing
To a polypropylene (PP) 384-well plate, 15 μls DMSO was added to all wells in columns 1-22 and 24 (low Control). 15 μls of 260 μM VX809 (Lumacaftor), Selleckchem S1565, was added to column 23 wells (high Control). 15 μls of 10 mM test compound or VX809 (control) were added to wells of row A. Serial dilutions of Row A compound were performed 2×15 μls in rows A through 0 (15-point).
A PP, 384-well plate containing the appropriate cell culture medium was prepared for each assay plate with 100 μls per well. For the doxycycline-induced 41o− cells, doxycycline for both the assay plate and the medium dilution plate was added at 0.0005 mg/ml to the medium.
Both cell lines were plated for the assay at 30 μls per 384-well at 3.4×10^e5 cells per ml (˜10K cells/well). H441 cells were plated on opaque, white, Corning plate 3704. 41o− cells were plated on collagen-coated opaque, white, Corning plate 356665. For 41o− cells, doxycycline was added to the medium.
Compound Addition/Assay Incubation
Using FX (Beckman) protocol, 10 μls diluted compound or medium was added per well to the Assay Plate as: 2 μls DMSO Dilution plate well is diluted in 100 μls of the Medium Dilution Plate well, mixed, and 10 μls is transferred to the Assay Plate.
The final assay dilution series is 24.5, 12.3, 6.1, 3.1, 1.5, 0.8, 0.4, 0.2, 0.1, 0.05, 0.02, 0.01, 0.006, 0.003, 0.001 and 0 μM. The 41o− assay plates were incubated at 37° C. w/CO2, the H441 assay plates were incubated at 27° C. w/CO2, each overnight for two nights.
Assay Result Determination
After being brought to room temperature, the assay plate liquid was removed. 30 uls of Luminata Forte (Millipore ELLUF0100) was added per well and incubated at room temperature for 10 min. The plates were then read on a Topcount, protocol LumiMatti (CPS, luminescence). The data was analyzed for % of maximum, maximum VX809 signal, and EC50 using Pearl and SPEED tools.

Assay [2] deals with T2, CFTR (ΔF508 homozygous CF-HBE cells) (Homo sapiens, UniProt P13569, DEL508-508).
T2 construct: Primary human bronchial epithelial cells from a ΔF508 homozygous CF donor; host or cells: primary CF-HBE cells (ΔF508/ΔF508 donor)
T2 sequence (P13569 with tags, fused parts or gaps DEL508-508): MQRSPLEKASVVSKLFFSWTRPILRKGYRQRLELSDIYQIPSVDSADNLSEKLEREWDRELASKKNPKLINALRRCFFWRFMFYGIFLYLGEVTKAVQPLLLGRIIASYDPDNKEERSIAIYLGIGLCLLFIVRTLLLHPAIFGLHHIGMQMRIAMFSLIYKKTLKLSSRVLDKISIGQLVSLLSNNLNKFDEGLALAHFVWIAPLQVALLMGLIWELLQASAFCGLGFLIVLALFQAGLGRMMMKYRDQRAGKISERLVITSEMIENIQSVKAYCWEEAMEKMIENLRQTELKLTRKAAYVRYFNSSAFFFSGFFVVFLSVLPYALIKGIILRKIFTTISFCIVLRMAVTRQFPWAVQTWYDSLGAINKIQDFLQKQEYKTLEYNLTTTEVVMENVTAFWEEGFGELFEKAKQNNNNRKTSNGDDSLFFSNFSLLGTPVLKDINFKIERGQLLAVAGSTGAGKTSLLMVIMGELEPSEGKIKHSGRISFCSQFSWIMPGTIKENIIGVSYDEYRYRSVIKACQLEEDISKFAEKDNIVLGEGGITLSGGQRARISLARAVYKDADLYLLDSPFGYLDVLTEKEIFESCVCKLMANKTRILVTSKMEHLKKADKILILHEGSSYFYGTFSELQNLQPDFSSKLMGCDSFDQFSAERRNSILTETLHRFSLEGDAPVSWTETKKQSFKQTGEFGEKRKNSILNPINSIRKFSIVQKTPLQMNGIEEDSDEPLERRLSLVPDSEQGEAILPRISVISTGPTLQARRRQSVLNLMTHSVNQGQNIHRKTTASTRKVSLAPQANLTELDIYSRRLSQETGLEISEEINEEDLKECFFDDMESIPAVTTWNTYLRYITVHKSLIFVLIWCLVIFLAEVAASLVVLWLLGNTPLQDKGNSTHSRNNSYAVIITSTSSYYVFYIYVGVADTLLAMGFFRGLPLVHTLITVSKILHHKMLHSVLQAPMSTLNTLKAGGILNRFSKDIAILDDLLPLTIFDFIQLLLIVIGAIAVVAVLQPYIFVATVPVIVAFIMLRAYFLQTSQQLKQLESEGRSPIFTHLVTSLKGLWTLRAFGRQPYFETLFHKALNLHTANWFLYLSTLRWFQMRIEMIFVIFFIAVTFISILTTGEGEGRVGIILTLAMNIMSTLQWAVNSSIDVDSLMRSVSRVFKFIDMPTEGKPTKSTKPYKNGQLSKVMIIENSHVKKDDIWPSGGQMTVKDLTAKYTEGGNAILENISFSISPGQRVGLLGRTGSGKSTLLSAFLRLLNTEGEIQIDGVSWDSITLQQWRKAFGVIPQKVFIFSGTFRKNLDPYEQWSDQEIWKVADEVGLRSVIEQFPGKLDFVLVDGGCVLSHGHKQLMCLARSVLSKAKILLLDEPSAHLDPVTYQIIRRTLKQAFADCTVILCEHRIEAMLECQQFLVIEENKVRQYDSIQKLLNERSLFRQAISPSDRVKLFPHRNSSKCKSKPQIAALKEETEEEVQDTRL
In words: TECC24 AUC fold over DMSO @10 uM: CFTR-mediated transepithelial chloride transport in primary CF-HBE cells. Type of assay: cell-based. The settings on record: 10 μM test agent, 48 hours, forskolin-stimulated IEQ AUC divided by vehicle AUC. On the procedure:
Example 37: TECC24 AUC Fold Over DMSO @10 uM
The effects of a test agent on CFTR-mediated transepithelial chloride transport was measured using TECC24 recording analysis. Test agents were solubilized in DMSO. Solubilized test agents were mixed with incubation medium containing DMEM/F12, Ultroser G (2%; Crescent Chemical, catalog #67042), Hyclone Fetal Clone 11(2%; GE Healthcare, catalog #SH30066.02), bovine brain extract (0.25%; Lonza, catalog #CC-4098), insulin (2.5 μg/mL), IL-13 (10 ng/mL), hydrocortisone (20 nM), transferrin (2.5 μg/mL), triiodothyronine (500 nM), ethanolamine (250 nM), epinephrine (1.5 μM), phosphoethanolamine (250 nM), and retinoic acid (10 nM). Primary human bronchial epithelial cells from a ΔF508 homozygous CF donor (CF-HBE cells; from University of North Carolina Cystic Fibrosis Tissue Procurement Center), grown on Transwell HTS 24-well cell culture inserts (Costar, catalog #3378), were exposed to test agents or controls dissolved in incubation medium. The CF-HBE cells were cultured at 36.5° C. for 48 hours before TECC24 recordings were performed in the presence or absence of test agent, a positive control or vehicle (DMSO).
Following incubation, the transwell cell culture inserts containing the test agent or control-treated CF-HBE cells were loaded onto a TECC24 apparatus (TECC v7 or MTECC v2; EP Design) to record the transepithelial voltage (VT) and resistance (TEER) using 4 AgCl electrodes per well configured in current-clamp mode. The apical and basolateral bath solutions both contained (in mM) 140 NaCl, 5 KCl, 2 CaCl2, 1 MgCl2, 10 Hepes, and 10 glucose (adjusted to pH 7.4 with NaOH). To inhibit basal Na+ absorption, the ENaC inhibitor benzamil (10 μM) was added to the bath. Then, the adenylate cyclase activator, forskolin (10 μM), was added to the bath to activate CFTR. The forskolin-stimulated Cl— transport was halted by addition of CFTR inhibitor-172 (20 μM) to the bath at the end of the experiment to confirm specificity. VT and TEER recordings were digitally acquired at routine intervals using TECC or MTECC software (EP Design). VT and TEER were transformed into equivalent transepithelial Cl-current (IEQ), and the Area Under the Curve (AUC) of the IEQ time course between forskolin and CFTR inhibitor-172 addition is generated using Excel (Microsoft). Efficacy is expressed as the ratio of the test agent AUC divided by vehicle AUC. EC50s based on AUC are generated using the non-linear regression log(agonist) vs. response function in Prism software (GraphPad) with Hill Slope fixed=1.
If a test agent increased the AUC of the forskolin-stimulated IEQ relative to vehicle in CF-HBE cells, and this increase was inhibited by CFTR inhibitor-172, then the test agent was considered a CFTR corrector.

The structures appear in SMILES notation.

T1 sequence (P13569 with tags, fused parts or gaps DEL508-508): as above

The EC50 is the concentration at which the effect is half-maximal. High values mean lower potency in that assay, low ones higher potency in that assay. The Emax is the greatest response seen or fitted, relative to the assay's reference. In assay [1], `Cc1cc2ccc(C(=O)N[C@H](C(=O)O)C(C)(C)C)c(OCc3ccc(C(F)(F)F)cc3)c2s1` [Compound 33-11, (2S)-3,3-dimethyl-2-(2-methyl-7-((4-(trifluoromethyl)benzyl)oxy)-benzo[b]thiophene-6-carboxamido)butanoic acid] came in with an EC50 of 474 nM and an Emax of 187%. In addition, the “TECC24 AUC fold over DMSO” value in assay [2] was “B (“B” refers to AUC @10 μM between 4-6)”.

Consider `CC(C)c1cc2ccc(C(=O)N[C@H](C(=O)O)C(C)(C)C)c(OCc3ccc(OC(F)(F)F)cc3)c2s1` [Compound 33-12, (2S)-2-(2-isopropyl-7-((4-(trifluoromethoxy)benzyl)oxy)-benzo[b]thiophene-6-carboxamido)-3,3-dimethylbutanoic acid], for which, in assay [1], a half-maximal effect (EC50) was put at 999 nM and the Emax stood at 150%. In assay [2], the “TECC24 AUC fold over DMSO” value is listed as “C (“C” refers to AUC @10 μM < 4)”.

In assay [1], `Cc1cc2c(OCc3ccc(OC(F)(F)F)cc3)c(C(=O)N[C@H](C(=O)O)C(C)(C)C)ccc2s1` [Compound 33-13, (2S)-3,3-dimethyl-2-(2-methyl-4-((4-(trifluoromethoxy)benzyl)oxy)-benzo[b]thiophene-5-carboxamido)butanoic acid] showed an EC50 of 377 nM and an Emax of 324%. Besides, the “TECC24 AUC fold over DMSO” value in assay [2] is given as “A (“A” refers to AUC @10 μM > 6)”.

Take `CCC(C)(C)[C@H](NC(=O)c1ccc2sc(OC)cc2c1OCc1ccc(C(F)(F)F)cc1)C(=O)O` [Compound 33-14, (2S)-2-(2-methoxy-4-((4-(trifluoromethyl)benzyl)oxy)-benzo[b]thiophene-5-carboxamido)-3,3-dimethylpentanoic acid]: in assay [1], a half-maximal response (EC50) required 1980 nM and the Emax came out at 422%. The “TECC24 AUC fold over DMSO” value in assay [2] is given as “A (“A” refers to AUC @10 μM > 6)”.

Consider `CCC(C)(C)[C@H](NC(=O)c1ccc2cc(Cl)sc2c1OCc1ccc(C(F)(F)F)cc1)C(=O)O` [Compound 33-15, (2S)-2-(2-chloro-7-((4-(trifluoromethyl)benzyl)oxy)-benzo[b]thiophene-6-carboxamido)-3,3-dimethylpentanoic acid], for which, in assay [1], the EC50 was found to be 880 nM and the Emax came out at 200%. Moreover, in assay [2], the “TECC24 AUC fold over DMSO” value was “A (“A” refers to AUC @10 μM > 6)”.

In assay [1], `CCC(C)(C)[C@H](NC(=O)c1ccc2sc(CCC(C)C)cc2c1OCc1ccc(C(F)(F)F)cc1)C(=O)O` [Compound 33-16, (2S)-2-(2-isopentyl-4-((4-(trifluoromethyl)benzyl)oxy)-benzo[b]thiophene-5-carboxamido)-3,3-dimethylpentanoic acid] registered an EC50 of 340 nM and an Emax of 218%. Further, the “TECC24 AUC fold over DMSO” value in assay [2] is “B (“B” refers to AUC @10 μM between 4-6)”.

In assay [1], `CC(C)(C)[C@H](NC(=O)c1ccc2sc(-c3cscn3)cc2c1OCc1ccc(C(F)(F)F)cc1)C(=O)O` [Compound 33-17, (2S)-3,3-dimethyl-2-(2-(thiazol-4-yl)-4-((4-(trifluoromethyl)benzyl)oxy)-benzo[b]thiophene-5-carboxamido)butanoic acid] displayed a 50% effective concentration (EC50) of 3200 nM and an Emax of 57.7%. Also, in assay [2], the “TECC24 AUC fold over DMSO” value is listed as “C (“C” refers to AUC @10 μM < 4)”.

In assay [1], `CCC(C)(C)[C@H](NC(=O)c1ccc2cc(C)sc2c1OCc1ccc(OC(F)(F)F)cc1)C(=O)O` [Compound 33-18, (2S)-3,3-dimethyl-2-(2-methyl-7-((4-(trifluoromethoxy)benzyl)oxy)-benzo[b]thiophene-6-carboxamido)pentanoic acid] yielded an EC50 of 1150 nM and an Emax of 217%. The “TECC24 AUC fold over DMSO” value in assay [2] is reported as “A (“A” refers to AUC @10 μM > 6)”.

For `CCC(C)(C)[C@H](NC(=O)c1ccc2cc(C)sc2c1OCc1ccc(C(F)(F)F)cc1)C(=O)O` [Compound 33-19, (2S)-3,3-dimethyl-2-(2-methyl-7-((4-(trifluoromethyl)benzyl)oxy)-benzo[b]thiophene-6-carboxamido)pentanoic acid], in assay [1], it took 427 nM to reach a half-maximal effect (EC50) and the Emax was 255%. Also, the “TECC24 AUC fold over DMSO” value in assay [2] was “A (“A” refers to AUC @10 μM > 6)”.

In assay [1], `CCC(C)(C)[C@H](NC(=O)c1ccc2sc(-c3cscn3)cc2c1OCc1ccc(C(F)(F)F)cc1)C(=O)O` [Compound 33-20, (2S)-3,3-dimethyl-2-(2-(thiazol-4-yl)-4-((4-(trifluoromethyl)benzyl)oxy)-benzo[b]thiophene-5-carboxamido)pentanoic acid] returned an EC50 of 2780 nM and an Emax of 81.2%. For the same molecule, in assay [2], the “TECC24 AUC fold over DMSO” value is “C (“C” refers to AUC @10 μM < 4)”.

In assay [1], `CCc1cc2c(OCc3ccc(C(F)(F)F)cc3)c(C(=O)N[C@H](C(=O)O)C(C)(C)C)ccc2s1` [Compound 33-21, (2S)-2-(2-ethyl-4-((4-(trifluoromethyl)benzyl)oxy)-benzo[b]thiophene-5-carboxamido)-3,3-dimethylbutanoic acid] registered an EC50 of 337 nM and an Emax of 268%. Further, the “TECC24 AUC fold over DMSO” value in assay [2] is recorded as “A (“A” refers to AUC @10 μM > 6)”.

Consider `CCC(C)(C)[C@H](NC(=O)c1ccc2cc(Cl)sc2c1OCc1ccc(OC(F)(F)F)cc1)C(=O)O` [Compound 33-22, (2S)-2-(2-chloro-7-((4-(trifluoromethoxy)benzyl)oxy)-benzo[b]thiophene-6-carboxamido)-3,3-dimethylpentanoic acid], for which, in assay [1], the concentration for a half-maximal effect (EC50) is 755 nM and the Emax was found to be 169%. In addition, in assay [2], the “TECC24 AUC fold over DMSO” value is “A (“A” refers to AUC @10 μM > 6)”.

In assay [1], `CCc1cc2c(OCc3ccc(OC(F)(F)F)cc3)c(C(=O)N[C@H](C(=O)O)C(C)(C)C)ccc2s1` [Compound 33-23, (2S)-2-(2-ethyl-4-((4-(trifluoromethoxy)benzyl)oxy)-3a,7a-benzo[b]thiophene-5-carboxamido)-3,3-dimethylbutanoic acid] came in with an EC50 of 1130 nM and an Emax of 315%. Besides, the “TECC24 AUC fold over DMSO” value in assay [2] is “A (“A” refers to AUC @10 μM > 6)”.
